Patent US20110263696A1, “PROANTHOCYANIDINS FROM CINNAMON AND ITS WATER SOLUBLE EXTRACT INHIBIT TAU AGGREGATION” (priority 2007, published 2011)

Legend:
tau fragment (tau 187) = biological target: T1, tau fragment (tau 187) (Homo sapiens, UniProt P10636); experiment: Thioflavin T fluorescence assay of tau aggregation; format: biochemical
T1 construct: his; made in house; host or cells: bacteria
Method: In one illustrative embodiment of the invention, the effects of cinnamon proanthocyanidin or its extract can be determined by fluorescence measurements in the presence of a thioflavin derivative. If aggregation proceeds through formation of an ordered structure, enhancement of thioflavin occurs. This method can be used to quantify the effects of the proanthocyanidins on the rate and extent of tau aggregation.
An alternative method is to incubate tau in the absence of thioflavin under conditions that cause aggregation in the absence and presence of cinnamon proanthocyanidin. At different times aliquots are removed to measure the aggregation by examining the fluorescence of thioflavin T added to these aliquots. As thioflavin can affect aggregation itself and could compete partly with binding of proanthocyanidin this modified assay could maximize the effect of proanthocyanidin. Because it would necessitate removing aliquots from the reaction at different times and mixing in new reagents, it is less convenient and prone to additional errors.
This conclusion was reached by measuring changes in fluorescence of thioflavin T under conditions well documented to cause formation of tau aggregates.

tau187 = biological target: T2, tau187 (Homo sapiens, UniProt P10636); experiment: Turbidity (OD350) assay of heparin-induced aggregation, tau187; format: biochemical; details: trimer 12.5 uM as pure trimer or as whole extract (0.22 mg/mL CE); OD 350 (FIG. 17)
T2 construct: his; made in house; host or cells: bacteria
Method: FIG. 15A. […] 50 μM Tau^187 was incubated with 0.11 mg/ml heparin (18 kDa) at 23° C. Aggregation was monitored by turbidity (OD350). Cinnamaldehyde was present at a final concentration of 0, 50 and 100 μM. FIG. 15B. Electron microscopy of tau fibers in the presence of cinnamaldehyde (CA). Tau fibers were visualized by electron microscopy after 5 hrs of aggregation in the presence of: 0 CA (left panel); B) 100 uM CA (right panel). […] FIG. 15 C. Trans-cinnamaldehyde chemical structure. FIG. 16A. […] 50 uM tau187 was incubated with 0.11 mg/mL heparin (18 kDa) at 23° C. Epicatechin was untreated, treated with 10 mM NH4OH for 10 min at 95° C. then neutralized, or treated with 100 U of mushroom tyrosinase (Sigma) for 10 min. Epicatechin was added to the reaction at a final concentration of 25 uM. Fiber formation was monitored by OD 350. FIG. 16B. epicatechin and catechin chemical structures. FIG. 17A. HPLC analysis of proanthocyanidin A-type trimer, A) purified or B) in whole cinnamon extract. The trimer corresponds to the major peak at ˜40 min. Areas underneath the peaks in panels A and B each correspond to 6150 pmoles. […] Fiber formation was monitored by OD 350. Concentrations of A-trimer in pure form and in whole cinnamon extract (CE) were normalized by absorbance measurements of the A-trimer resolved by HPLC. […]

tau polypeptides = experiment: Light scattering measurements (absorbance at 350 nm) of tau aggregation; format: biochemical, human
Method: FIG. 11. Dose response of cinnamon (oxidized) on tau aggregation. […] In this experiment, cinnamon was incubated overnight in 10 mM NH4OH.
FIG. 12. Effect of cinnamon A trimer on light scattering of tau.
In one illustrative embodiment of the invention, the effects of cinnamon extract or purified cinnamon proanthocyanidins on tau aggregation can be followed readily in a spectrophotometer by measuring the change in absorbance at 350 nm. The association of tau promoted by heparin causes an increase in absorbance. […] Different buffers and temperatures may be used if desired to study factor influencing aggregation.

[1] = test system: tau-dependent MT assembly; experiment: Tau-dependent microtubule assembly, turbidity OD350; format: biochemical; details: tubulin 5 uM, tau187, turbidity OD350
Method: FIG. 9. […] Tubulin (5 uM) was incubated (a) alone, or with (b) CE, (c) tau or (d) both. MT assembly was monitored by turbidity at OD350 in a continuous spectrophotometric assay.
The normal function of tau in neurons is to regulate MT assembly and dynamics. Thus it is desirable for a potential AD therapeutic to inhibit tau aggregation but not impede normal tau function. To test this, purified tubulin was incubated with either CE, tau187 or both, and MT assembly was monitored by solution turbidity. […] The reason for this is unclear, but since tau is normally an unstructured molecule, it is possible that CE promotes a conformer in tau that favors MT binding. Thus CE and proanthocyanidins appear to act as specific inhibitors of tau aggregation that are free of side effects on normal neuron function.

tau = experiment: Tau aggregation / AD fiber formation in vitro (method not specified); format: biochemical
Method: In a first illustrative embodiment of an extraction procedure of the invention, an extract is obtained by using nanopure water equal to 10 times the weight of cinnamon. The mixture is heated for 10 minutes at 95° C., cooled, and centrifuged at 14,000 rpm. The nearly clear supernatant is centrifuged again and then the clear supernatant is filtered through 0.4 and 0.2 micron filters and lyophilized. A fluffy pale tan colored powder can be obtained.

tau filaments = experiment: Transmission electron microscopy of tau filaments; format: biochemical; details: aggregating conditions
Description: In one illustrative embodiment of the invention, transmission electron microscopy, is a highly desirable technique for studies of aggregation with heparin and water or with heparin and purified proanthocyanidin or cinnamon extracts from Cinnamomum zeylanicum, Cinnamomum cassia, or Cinnamomum loueirii. It provides definition of what the aggregates actually are, e.g., filaments and their abundance, sizes, and shapes.

[2] = test system: Full-length tau or tau 187; experiment: Gel electrophoresis of sarkosyl pellets vs supernatants; format: biochemical, human
Method: In one illustrative embodiment of the invention, gel electrophoresis also can be used to study effects on aggregation. The advantage here is that simple equipment is needed for these measurements but the system provides less definition of the effects of the inhibitors than electron microscopy. Full-length tau or tau 187 (50 uM) is induced to undergo aggregation with heparin (0.1 mg/ml) for 16 hours at room temperature in the presence of varying concentrations of cinnamon extract or cinnamon proanthocyanidin type A trimer. Samples are then treated with 1% sarkosyl for 1 hr, centrifuged (105,000 g×1 hr), and the pellets (P) versus supernatants (S) then analyzed by SDS-PAGE. The increase in the ratio of tau in the pellet compared to the supernatant is a measure of aggregation and cinnamon extract or purified proanthocyanidin is found to decrease this ratio.

adipocyte cells = details: 0.1 mg/ml PA trimer; Graves et al. 2001; cited from earlier work

Sequence of tau (P10636 572-758 limits assumed): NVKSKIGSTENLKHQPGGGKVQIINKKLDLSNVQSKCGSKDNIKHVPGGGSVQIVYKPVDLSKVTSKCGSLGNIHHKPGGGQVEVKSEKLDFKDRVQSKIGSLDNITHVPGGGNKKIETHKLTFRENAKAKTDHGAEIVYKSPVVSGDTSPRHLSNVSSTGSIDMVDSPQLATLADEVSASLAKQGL
Sequence of tau filaments (P10636 572-758 limits assumed): as above
T2 sequence (P10636 572-758 limits assumed): as above
Sequence of tau polypeptides (P10636 572-758 limits assumed): as above
T1 sequence (P10636 572-758 limits assumed): as above
Sequence of Full-length tau or tau 187 (P10636 572-758 limits assumed): as above

A-linked proanthocyanidin trimer [A-type trimer]
Inhibition of tau 187 aggregation by thioflavin T fluorescence (tau fragment (tau 187)): reduces aggregation of tau | Inhibition of tau187 aggregation, whole extract vs pure trimer at equal trimer content (tau187): inhibits tau polypeptide aggregation | Inhibition of tau aggregation by light scattering (tau polypeptides): inhibits the aggregation | Effect on tau-dependent MT assembly [1]: does not inhibit | Concentration that completely inhibits tau aggregation in vitro (tau; complete inhibition of tau aggregation/AD fiber formation): 0.17 mg/ml PA trimer | Effectiveness of purified PA trimer relative to CE (tau; same amount of PA trimer, fraction of CE effect): ½ | Formation of tau filaments by transmission electron microscopy (tau filaments): inhibited | Tau aggregation by gel electrophoresis [2]: less aggregation of tau | Glucose uptake (adipocyte cells): increase in glucose uptake
